Source: US7968526B2, “Antisense oligonucleotides directed to ribonucleotide reductase R2 and uses thereof in the treatment of cancer” (Lorus Therapeutics Inc., priority 2003, dated 2011)

Assay: Tissue distribution in the rat (CE method)
Type: in vivo
Experimental: The toxicokinetics and tissue distribution of SEQ ID NO:1 (and related oligonucleotide metabolites obtained from exonuclease-mediated chain shortening) were determined in rats and monkeys. In addition to investigating the pharmacokinetics and tissue distribution of SEQ ID NO:1, the purpose of the studies was to correlate adverse effects in the animal studies to the concentrations of SEQ ID NO:1 (and metabolites) in tissue and blood. A capillary electrophoresis (CE) method was used to measure the concentrations of SEQ ID NO:1 (and metabolites) in plasma and tissues.
The concentrations of SEQ ID NO:1 (and related n+1, n−1 to n−15 oligonucleotide metabolites) in the following rat and monkey tissues were measured by a validated CE method (Southwest Bio-Labs, Inc.): kidney, liver, spleen, heart, lung, bone marrow (rat), lymph nodes (monkey) and brain tissues. The tissue samples were collected from the designated animals as described in the 21-day toxicity studies: rats, administered bolus intravenous injections of SEQ ID NO:1 every other day at 2, 10, or 50 mg/kg; and monkeys administered SEQ ID NO:1 by continuous intravenous infusion at 2, 10, or 50 mg/kg/day.

[1] = 2 mg/kg bolus i.v. every other day, 4 hrs post first dose
[2] = 2 mg/kg bolus i.v. every other day, 4 hrs post last dose
[3] = 2 mg/kg bolus i.v. every other day, 48 hrs post first dose
[4] = 10 mg/kg bolus i.v. every other day, 4 hrs post first dose
[5] = 10 mg/kg bolus i.v. every other day, 4 hrs post last dose
[6] = 10 mg/kg bolus i.v. every other day, 48 hrs post first dose
[7] = 50 mg/kg bolus i.v. every other day, 4 hrs post first dose
[8] = 50 mg/kg bolus i.v. every other day, 4 hrs post last dose
[9] = 50 mg/kg bolus i.v. every other day, 48 hrs post first dose

5′-GGCTAAATCGCTCCACCAAG-3′ (all phosphorothioate, sugars by position and methylation of C not given here) [SEQ ID NO: 1, fully phosphorothioated antisense oligonucleotide that hybridizes to the coding region of R2 mRNA]
Rank order of tissue concentrations: kidney>liver>bone marrow>spleen>heart>lung
Mean Concentration SEQ ID NO: 1, Bone Marrow [1]: BDL (below detectable limits (1 μg/g rat; 0.2 μg/g monkey))
Mean Concentration SEQ ID NO: 1, Brain [1]: BDL (below detectable limits (1 μg/g rat; 0.2 μg/g monkey))
Mean Concentration SEQ ID NO: 1, Heart [1]: 0.8 µg/g
Mean Concentration SEQ ID NO: 1, Kidney [1]: 6.7 µg/g
Mean Concentration SEQ ID NO: 1, Liver [1]: 6.9 µg/g
Mean Concentration SEQ ID NO: 1, Lung [1]: BDL (below detectable limits (1 μg/g rat; 0.2 μg/g monkey))
Mean Concentration SEQ ID NO: 1, Spleen [1]: 1.0 µg/g
Mean Concentration total metabolites (n + 1 through n − 13), Bone Marrow [1]: BDL (below detectable limits (1 μg/g rat; 0.2 μg/g monkey))
Mean Concentration total metabolites (n + 1 through n − 13), Brain [1]: BDL (below detectable limits (1 μg/g rat; 0.2 μg/g monkey))
Mean Concentration total metabolites (n + 1 through n − 13), Heart [1]: 0.3 µg/g
Mean Concentration total metabolites (n + 1 through n − 13), Kidney [1]: 20.8 µg/g
Mean Concentration total metabolites (n + 1 through n − 13), Liver [1]: 16.9 µg/g
Mean Concentration total metabolites (n + 1 through n − 13), Lung [1]: BDL (below detectable limits (1 μg/g rat; 0.2 μg/g monkey))
Mean Concentration total metabolites (n + 1 through n − 13), Spleen [1]: 1.2 µg/g
Mean Concentration SEQ ID NO: 1, Bone Marrow [2]: 1.8 µg/g
Mean Concentration SEQ ID NO: 1, Brain [2]: BDL (below detectable limits (1 μg/g rat; 0.2 μg/g monkey))
Mean Concentration SEQ ID NO: 1, Heart [2]: BDL (below detectable limits (1 μg/g rat; 0.2 μg/g monkey))
Mean Concentration SEQ ID NO: 1, Kidney [2]: 28.0 µg/g
Mean Concentration SEQ ID NO: 1, Liver [2]: 13.8 µg/g
Mean Concentration SEQ ID NO: 1, Lung [2]: 0.9 µg/g
Mean Concentration SEQ ID NO: 1, Spleen [2]: 1.8 µg/g
Mean Concentration total metabolites (n + 1 through n − 13), Bone Marrow [2]: 3.8 µg/g
Mean Concentration total metabolites (n + 1 through n − 13), Brain [2]: BDL (below detectable limits (1 μg/g rat; 0.2 μg/g monkey))
Mean Concentration total metabolites (n + 1 through n − 13), Heart [2]: BDL (below detectable limits (1 μg/g rat; 0.2 μg/g monkey))
Mean Concentration total metabolites (n + 1 through n − 13), Kidney [2]: 122.8 µg/g
Mean Concentration total metabolites (n + 1 through n − 13), Liver [2]: 42.1 µg/g
Mean Concentration total metabolites (n + 1 through n − 13), Lung [2]: 0.2 µg/g
Mean Concentration total metabolites (n + 1 through n − 13), Spleen [2]: 6.5 µg/g
Mean Concentration SEQ ID NO: 1, Bone Marrow [3]: BDL (below detectable limits (1 μg/g rat; 0.2 μg/g monkey))
Mean Concentration SEQ ID NO: 1, Brain [3]: BDL (below detectable limits (1 μg/g rat; 0.2 μg/g monkey))
Mean Concentration SEQ ID NO: 1, Heart [3]: BDL (below detectable limits (1 μg/g rat; 0.2 μg/g monkey))
Mean Concentration SEQ ID NO: 1, Kidney [3]: 1.0 µg/g
Mean Concentration SEQ ID NO: 1, Liver [3]: BDL (below detectable limits (1 μg/g rat; 0.2 μg/g monkey))
Mean Concentration SEQ ID NO: 1, Lung [3]: BDL (below detectable limits (1 μg/g rat; 0.2 μg/g monkey))
Mean Concentration SEQ ID NO: 1, Spleen [3]: BDL (below detectable limits (1 μg/g rat; 0.2 μg/g monkey))
Mean Concentration total metabolites (n + 1 through n − 13), Bone Marrow [3]: BDL (below detectable limits (1 μg/g rat; 0.2 μg/g monkey))
Mean Concentration total metabolites (n + 1 through n − 13), Brain [3]: BDL (below detectable limits (1 μg/g rat; 0.2 μg/g monkey))
Mean Concentration total metabolites (n + 1 through n − 13), Heart [3]: BDL (below detectable limits (1 μg/g rat; 0.2 μg/g monkey))
Mean Concentration total metabolites (n + 1 through n − 13), Kidney [3]: 3.6 µg/g
Mean Concentration total metabolites (n + 1 through n − 13), Liver [3]: BDL (below detectable limits (1 μg/g rat; 0.2 μg/g monkey))
Mean Concentration total metabolites (n + 1 through n − 13), Lung [3]: BDL (below detectable limits (1 μg/g rat; 0.2 μg/g monkey))
Mean Concentration total metabolites (n + 1 through n − 13), Spleen [3]: BDL (below detectable limits (1 μg/g rat; 0.2 μg/g monkey))
Mean Concentration SEQ ID NO: 1, Bone Marrow [4]: 2.7 µg/g
Mean Concentration SEQ ID NO: 1, Brain [4]: BDL (below detectable limits (1 μg/g rat; 0.2 μg/g monkey))
Mean Concentration SEQ ID NO: 1, Heart [4]: 1.5 µg/g
Mean Concentration SEQ ID NO: 1, Kidney [4]: 31.1 µg/g
Mean Concentration SEQ ID NO: 1, Liver [4]: 19.7 µg/g
Mean Concentration SEQ ID NO: 1, Lung [4]: 1.6 µg/g
Mean Concentration SEQ ID NO: 1, Spleen [4]: 2.6 µg/g
Mean Concentration total metabolites (n + 1 through n − 13), Bone Marrow [4]: 3.5 µg/g
Mean Concentration total metabolites (n + 1 through n − 13), Brain [4]: BDL (below detectable limits (1 μg/g rat; 0.2 μg/g monkey))
Mean Concentration total metabolites (n + 1 through n − 13), Heart [4]: 4.2 µg/g
Mean Concentration total metabolites (n + 1 through n − 13), Kidney [4]: 88.1 µg/g
Mean Concentration total metabolites (n + 1 through n − 13), Liver [4]: 47.9 µg/g
Mean Concentration total metabolites (n + 1 through n − 13), Lung [4]: 2.3 µg/g
Mean Concentration total metabolites (n + 1 through n − 13), Spleen [4]: 7.8 µg/g
Mean Concentration SEQ ID NO: 1, Bone Marrow [5]: 3.6 µg/g
Mean Concentration SEQ ID NO: 1, Brain [5]: BDL (below detectable limits (1 μg/g rat; 0.2 μg/g monkey))
Mean Concentration SEQ ID NO: 1, Heart [5]: BDL (below detectable limits (1 μg/g rat; 0.2 μg/g monkey))
Mean Concentration SEQ ID NO: 1, Kidney [5]: 129.5 µg/g
Mean Concentration SEQ ID NO: 1, Liver [5]: 38.1 µg/g
Mean Concentration SEQ ID NO: 1, Lung [5]: 2.1 µg/g
Mean Concentration SEQ ID NO: 1, Spleen [5]: 3.2 µg/g
Mean Concentration total metabolites (n + 1 through n − 13), Bone Marrow [5]: 6.6 µg/g
Mean Concentration total metabolites (n + 1 through n − 13), Brain [5]: BDL (below detectable limits (1 μg/g rat; 0.2 μg/g monkey))
Mean Concentration total metabolites (n + 1 through n − 13), Heart [5]: 9.4 µg/g
Mean Concentration total metabolites (n + 1 through n − 13), Kidney [5]: 613.5 µg/g
Mean Concentration total metabolites (n + 1 through n − 13), Liver [5]: 105.9 µg/g
Mean Concentration total metabolites (n + 1 through n − 13), Lung [5]: 3.3 µg/g
Mean Concentration total metabolites (n + 1 through n − 13), Spleen [5]: 13.5 µg/g
Mean Concentration SEQ ID NO: 1, Bone Marrow [6]: BDL (below detectable limits (1 μg/g rat; 0.2 μg/g monkey))
Mean Concentration SEQ ID NO: 1, Brain [6]: BDL (below detectable limits (1 μg/g rat; 0.2 μg/g monkey))
Mean Concentration SEQ ID NO: 1, Heart [6]: BDL (below detectable limits (1 μg/g rat; 0.2 μg/g monkey))
Mean Concentration SEQ ID NO: 1, Kidney [6]: 13.3 µg/g
Mean Concentration SEQ ID NO: 1, Liver [6]: 4.7 µg/g
Mean Concentration SEQ ID NO: 1, Lung [6]: BDL (below detectable limits (1 μg/g rat; 0.2 μg/g monkey))
Mean Concentration SEQ ID NO: 1, Spleen [6]: BDL (below detectable limits (1 μg/g rat; 0.2 μg/g monkey))
Mean Concentration total metabolites (n + 1 through n − 13), Bone Marrow [6]: BDL (below detectable limits (1 μg/g rat; 0.2 μg/g monkey))
Mean Concentration total metabolites (n + 1 through n − 13), Brain [6]: BDL (below detectable limits (1 μg/g rat; 0.2 μg/g monkey))
Mean Concentration total metabolites (n + 1 through n − 13), Heart [6]: BDL (below detectable limits (1 μg/g rat; 0.2 μg/g monkey))
Mean Concentration total metabolites (n + 1 through n − 13), Kidney [6]: 68.4 µg/g
Mean Concentration total metabolites (n + 1 through n − 13), Liver [6]: 8.3 µg/g
Mean Concentration total metabolites (n + 1 through n − 13), Lung [6]: BDL (below detectable limits (1 μg/g rat; 0.2 μg/g monkey))
Mean Concentration total metabolites (n + 1 through n − 13), Spleen [6]: BDL (below detectable limits (1 μg/g rat; 0.2 μg/g monkey))
Mean Concentration SEQ ID NO: 1, Bone Marrow [7]: 13.2 µg/g
Mean Concentration SEQ ID NO: 1, Brain [7]: BDL (below detectable limits (1 μg/g rat; 0.2 μg/g monkey))
Mean Concentration SEQ ID NO: 1, Heart [7]: 14.5 µg/g
Mean Concentration SEQ ID NO: 1, Kidney [7]: 86.1 µg/g
Mean Concentration SEQ ID NO: 1, Liver [7]: 51.9 µg/g
Mean Concentration SEQ ID NO: 1, Lung [7]: 13.3 µg/g
Mean Concentration SEQ ID NO: 1, Spleen [7]: 32.7 µg/g
Mean Concentration total metabolites (n + 1 through n − 13), Bone Marrow [7]: 19.5 µg/g
Mean Concentration total metabolites (n + 1 through n − 13), Brain [7]: BDL (below detectable limits (1 μg/g rat; 0.2 μg/g monkey))
Mean Concentration total metabolites (n + 1 through n − 13), Heart [7]: 13.0 µg/g
Mean Concentration total metabolites (n + 1 through n − 13), Kidney [7]: 187 µg/g
Mean Concentration total metabolites (n + 1 through n − 13), Liver [7]: 79.9 µg/g
Mean Concentration total metabolites (n + 1 through n − 13), Lung [7]: 21.8 µg/g
Mean Concentration total metabolites (n + 1 through n − 13), Spleen [7]: 19.9 µg/g
Mean Concentration SEQ ID NO: 1, Bone Marrow [8]: 29.9 µg/g
Mean Concentration SEQ ID NO: 1, Brain [8]: BDL (below detectable limits (1 μg/g rat; 0.2 μg/g monkey))
Mean Concentration SEQ ID NO: 1, Heart [8]: 20.8 µg/g
Mean Concentration SEQ ID NO: 1, Kidney [8]: 286.6 µg/g
Mean Concentration SEQ ID NO: 1, Liver [8]: 91.6 µg/g
Mean Concentration SEQ ID NO: 1, Lung [8]: 18.2 µg/g
Mean Concentration SEQ ID NO: 1, Spleen [8]: 18.4 µg/g
Mean Concentration total metabolites (n + 1 through n − 13), Bone Marrow [8]: 67.4 µg/g
Mean Concentration total metabolites (n + 1 through n − 13), Brain [8]: BDL (below detectable limits (1 μg/g rat; 0.2 μg/g monkey))
Mean Concentration total metabolites (n + 1 through n − 13), Heart [8]: 42.5 µg/g
Mean Concentration total metabolites (n + 1 through n − 13), Kidney [8]: 1373.6 µg/g
Mean Concentration total metabolites (n + 1 through n − 13), Liver [8]: 279.7 µg/g
Mean Concentration total metabolites (n + 1 through n − 13), Lung [8]: 30.0 µg/g
Mean Concentration total metabolites (n + 1 through n − 13), Spleen [8]: 60.8 µg/g
Mean Concentration SEQ ID NO: 1, Bone Marrow [9]: 2.8 µg/g
Mean Concentration SEQ ID NO: 1, Brain [9]: BDL (below detectable limits (1 μg/g rat; 0.2 μg/g monkey))
Mean Concentration SEQ ID NO: 1, Heart [9]: 2.5 µg/g
Mean Concentration SEQ ID NO: 1, Kidney [9]: 48.2 µg/g
Mean Concentration SEQ ID NO: 1, Liver [9]: 19.8 µg/g
Mean Concentration SEQ ID NO: 1, Lung [9]: 2.1 µg/g
Mean Concentration SEQ ID NO: 1, Spleen [9]: 1.4 µg/g
Mean Concentration total metabolites (n + 1 through n − 13), Bone Marrow [9]: 4.4 µg/g
Mean Concentration total metabolites (n + 1 through n − 13), Brain [9]: BDL (below detectable limits (1 μg/g rat; 0.2 μg/g monkey))
Mean Concentration total metabolites (n + 1 through n − 13), Heart [9]: 7.2 µg/g
Mean Concentration total metabolites (n + 1 through n − 13), Kidney [9]: 287.6 µg/g
Mean Concentration total metabolites (n + 1 through n − 13), Liver [9]: 68.7 µg/g
Mean Concentration total metabolites (n + 1 through n − 13), Lung [9]: 3.8 µg/g
Mean Concentration total metabolites (n + 1 through n − 13), Spleen [9]: 2.2 µg/g
Concentrations in the brain (lower limit for detection 1 μg/g): below the limits of detection
